± gives the expanded uncertainty stated by the source.
Normal melting temperature (Crystal 1, DTA) [°C] | SMILES | Triple point temperature (Crystal 2, DSC) [K]
662.00 ± 2 | [Al] [aluminum] | –
– | [K+].[O-][Cl+3]([O-])([O-])[O-] [potassium perchlorate] | 579.15 ± 2

Reference: the NIST ThermoML archive (doi:10.1016/j.tca.2017.11.006)
